In general, IC50 refers to the concentration at which inhibition is half-maximal.

We go through one compound from article PMC10224356, “Trisubstituted 1,3,5-Triazines as Histamine H4 Receptor Antagonists with Promising Activity In Vivo” (Molecules, 2023).

Series [1] concerns SH-SY5Y cells. The experiment in a line: Toxicity evaluation, MTS assay in SH-SY5Y cells. In kind it is cell-based, human. The text has this:
Toxic substances can affect the cells. Early in the research process, it is crucial to determine whether obtained compounds can induce such effects. From our series of compounds, compound 6 was selected for toxicity evaluation. MTS assay was used to test toxicity on HepG2 and SH-SY5Y cell lines. HepG2 cells closely reflect the human liver cell model whereas SH-SY5Y neuroblastoma cells are used in models of neurodegenerative diseases (especially Parkinson’s disease) to study the cellular and molecular factors that lead to these disorders.
Compound 6, at concentrations ranging from 0.78 µM to 50 µM, was incubated with the respective cell lines for 48 h (HepG2) or 24 h (SH-SY5Y). Then, MTS reagent was added and absorbances at 490 nm were read after 1 h. […] The reduction in SH-SY5Y cell viability (Figure 6B) of an average of 4–12% was observed over the range of concentrations.
The hepatoma cell line HepG2 (ATCC® HB-8065TM) and SH-SY5Y CRL-2266 neuroblastoma cell line were used to evaluate the toxicity of tested compounds. Tests were conducted as described previously. CellTiter 96® Aqueous Non-Radioactive Cell Proliferation Assay was purchased from Promega (Madison, WI, USA). Compounds were tested at 7 concentrations (0.78, 1.56, 3.125, 6.25, 12.5, 25 and 50 µM). Cell viability was determined after incubation with compounds for […]. Each experiment was performed twice in triplicate.

The target in series [2] is hH4R (Homo sapiens, UniProt Q9H3N8). The series is described as follows: cAMP accumulation assay (LANCE Ultra cAMP, CHO-K1 cells stably expressing hH4R). More on the design: expressed in transfected cells. In kind it is cell-based. As for the experimental part: Intrinsic activity via the Gα subunit was measured using a LANCE Ultra cAMP detection kit and CHO-K1 cells stably expressing hH4R. Adenyl cyclase was stimulated by forskolin (10 µM).
Intrinsic activity in G protein-dependent pathway was measured with homogenous TR-FRET immunoassay, using LANCE Ultra cAMP kit and CHO-K1 H4R cell line or γ-irradiated recombinant CHO-K1 H4R cells (all from PerkinElmer). […] If the CHO-K1 H4R cell line was used it had been cultivated in DMEM/F12 10% FBS 400 µg/mL geneticin and passaged three times a week. […] The antagonist activity was measured in a white, opaque, 384-well microplate (PerkinElmer) with a total volume of 20 µL. […] After incubation, 5 µL of europium chelate-labelled cAMP tracer and 5 µl of ULight-labelled anti-cAMP mAb working solutions were added, mixed and incubated for 1 h. TR-FRET signal was read using a microplate reader (PerkinElmer, Waltham, MA, USA).
Background: Cyclic AMP is a second messenger, typically raised through Gs and lowered through Gi signalling.

The test system of series [3] is mice. The experiment in a line: Formalin test. In kind it is in vivo. The note with it: for Paw licking/biting, late phase of formalin test, % of the control group: 15–30 min after formalin. The procedure:
The blockade of H4Rs expressed in inflammatory cells results in anti-inflammatory and analgesic effects. On the contrary, the activation of neuronal H4Rs leads to analgesia.
The procedure used was essentially the same as that described previously. […] The total time (in s) spent on licking the injected paw during periods of 0–5 min (early phase, neurogenic) and 15–30 min (late phase, inflammatory) was measured and was considered as an indicator of nociceptive behaviour. Before formalin injection different groups of mice were treated i.p. with vehicle (10 mL/kg, negative control) and the dose–response of the investigated compound.

Sequence of hH4R (Q9H3N8 whole entry): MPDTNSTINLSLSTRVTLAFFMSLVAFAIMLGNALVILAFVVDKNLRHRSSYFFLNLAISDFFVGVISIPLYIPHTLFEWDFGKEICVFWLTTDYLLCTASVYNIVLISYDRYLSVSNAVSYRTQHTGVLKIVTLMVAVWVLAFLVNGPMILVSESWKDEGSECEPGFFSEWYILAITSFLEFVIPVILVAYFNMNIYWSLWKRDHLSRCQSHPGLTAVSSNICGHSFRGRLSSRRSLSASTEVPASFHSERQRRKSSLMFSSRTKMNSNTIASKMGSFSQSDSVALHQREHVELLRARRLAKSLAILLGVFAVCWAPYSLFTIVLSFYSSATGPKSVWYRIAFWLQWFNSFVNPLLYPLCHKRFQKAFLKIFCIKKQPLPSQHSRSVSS

As for `CN1CCN(c2nc(N)nc(CC3CCCC3)n2)CC1` [Compound 6, 4-(Cyclopentylmethyl)-6-(4-methylpiperazin-1-yl)-1,3,5-triazin-2-amine], in series [1] (0.78–50 µM), the “Reduction in SH-SY5Y cell viability, average over the range of concentrations” value is listed as 4–12%. In addition, the “Toxicity in SH-SY5Y cells (MTS)” value in series [1] (0.78–50 µM, 24 h incubation) is “no toxicity up to 50 µM”. For the same compound, in series [1] (even at the highest concentration (50 µM)), the “Reduction of SH-SY5Y cell viability” value was not above 50%. For the same compound, in series [2] (antagonist mode, forskolin 10 µM, histamine 140 nM, CHO-K1 hH4R cells, read-out: cAMP hH4R IC50 ± SEM), the IC50 came to 10 ± 2 nM. Besides, the Kb in series [2] (calculated from IC50 by Leff–Dougall variant of Cheng–Prusoff equation, read-out: pKb cAMP ± SEM (converted)) was 3.55 nM. For the same compound, the “Paw licking/biting, late phase of formalin test, % of the control group” value in series [3] (50 mg/kg i.p.) was 44.02 % of the control group; in series [3] (75 mg/kg i.p.) it was 56.62 % of the control group. In addition, the “Duration of nociceptive response, acute phase of formalin test” value in series [3] (i.p., 0–5 min after formalin) is reported as “did not significantly affect”.
